Assay results published in patent publication US7829728B2, “Diarymethyl and related compounds” (Theravance, Inc., priority 2003, dated 2010).

What was measured:
[1] = biological target: T1, human β2 adrenergic receptor (Homo sapiens, UniProt P07550); assay: Whole-cell cAMP Flashplate assay with a lung epithelial cell line (BEAS-2B) endogenously expressing human β2 adrenergic receptor (Assay Test Procedure E); format: cell-based; conditions: BEAS-2B human lung epithelial cells, endogenous receptor
T1 sequence (P07550 whole entry): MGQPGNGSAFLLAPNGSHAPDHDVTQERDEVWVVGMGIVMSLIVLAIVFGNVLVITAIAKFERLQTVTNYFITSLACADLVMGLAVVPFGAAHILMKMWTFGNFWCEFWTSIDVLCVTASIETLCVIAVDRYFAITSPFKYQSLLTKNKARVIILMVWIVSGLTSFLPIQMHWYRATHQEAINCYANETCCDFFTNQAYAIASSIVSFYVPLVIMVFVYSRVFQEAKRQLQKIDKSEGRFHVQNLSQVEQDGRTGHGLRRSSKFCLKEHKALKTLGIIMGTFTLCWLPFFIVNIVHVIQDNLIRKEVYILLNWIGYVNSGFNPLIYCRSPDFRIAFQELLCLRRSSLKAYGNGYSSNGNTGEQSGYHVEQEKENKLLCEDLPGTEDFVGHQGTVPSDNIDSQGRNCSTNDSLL
Procedure: For the determination of agonist potencies and efficacies (intrinsic activities) in a cell line expressing endogenous levels of the β2 adrenergic receptor, a human lung epithelial cell line (BEAS-2B) was used (ATCC CRL-9609, American Type Culture Collection, Manassas, Va.) (January B, et al., British Journal of Pharmacology, 1998, 123, 4, 701-11). Cells were grown to 75-90% confluency in complete, serum-free medium (LHC-9 MEDIUM containing Epinephrine and Retinoic Acid, cat #181-500, Biosource International, Camarillo, Calif.). […] On the day of the assay, cells were rinsed with PBS, lifted by scraping with 5 mM EDTA in PBS, and counted. […] Plates were sealed, incubated over night at 4° C. and counted the next morning in a Topcount scintillation counter (Packard BioScience Co., Meriden, Conn.). The amount of cAMP produced per mL of reaction was calculated based on the counts observed for samples and cAMP standards, as described in the manufacturer's user manual. Data were analyzed by nonlinear regression analysis with the GraphPad Prism Software package (GraphPad Software, Inc., San Diego, Calif.) using the 4-parameter model for sigmoidal dose-response. […]

[2] = biological target: T1, human β2 adrenergic receptor; assay: Radioligand binding assay for human β2 adrenergic receptor (Assay Test Procedure A); design: expressed in transfected cells; host or cells: CHO cells, membranes; conditions: receptor subtype selectivity, human β1 versus β2
Procedure: Chinese hamster ovarian (CHO) cell lines stably expressing cloned human β1, β2 or β3 adrenergic receptors, respectively, were grown to near con fluency in Hams F-12 media with 10% FBS in the presence of 500 μg/mL Geneticin. The cell monolayer was lifted with 2 mM EDTA in PBS. Cells were pelleted by centrifugation at 1,000 rpm, and cell pellets were either stored frozen at −80° C. or membranes were prepared immediately for use. For preparation of β1 and β2 receptor expressing membranes, cell pellets were re-suspended in lysis buffer (10 mM HEPES/HCl, 10 mM EDTA, pH 7.4 at 4° C.) and homogenized using a tight-fitting Dounce glass homogenizer (30 strokes) on ice. […] The protein concentration of the membrane suspension was determined by the methods described in Lowry et al., 1951, Journal of Biological Chemistry, 193, 265; and Bradford, Analytical Biochemistry, 1976, 72, 248-54. […]
Binding assays were performed in 96-well microtiter plates in a total assay volume of 100 μL with 10-15 μg of membrane protein containing the human β1, β2 or β3 adrenergic receptors in assay buffer (75 mM Tris/HCl pH 7.4 at 25° C., 12.5 mM MgCl2, 1 mM EDTA, 0.2% BSA). […] Non-specific binding was determined in the presence of 10 μM propranolol. […] Filter plates were washed three times with filtration buffer (75 mM Tris/HCl pH 7.4 at 4° C., 12.5 mM MgCl2, 1 mM EDTA) to remove unbound radioactivity. […]

EC50 [1]: < 10 nM
ratio of Ki(β1)/Ki(β2) [2]: greater than 8
SMILES: NC(=O)C(c1ccccc1)(c1ccccc1)[C@@H]1CCN(CCCCCCCCCNCC(O)c2ccc(O)c3[nH]c(=O)ccc23)C1 (mixture of isomers) [Example 1, 2-((S)-1-{9-[2-Hydroxy-2-(8-hydroxy-2-oxo-1,2-dihydroquinolin-5-yl)ethylamino]-nonyl}pyrrolidin-3-yl)-2,2-diphenylacetamide]
